Laboratory results: patent US10597388B2, “Pyridazinone herbicides” (FMC CORPORATION, priority 2014, dated 2020)

What was measured:
Format in all cases: in vivo
[1] = tested on: barnyardgrass (Echinochloa crus-galli); experiment: Test A greenhouse herbicide test, pre- and postemergence
Method in brief: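 Seeds in loam–sand blend received a preemergence directed soil spray; plants at 2–10 cm, one- to two-leaf stage, received postemergence sprays. Compounds in a non-phytotoxic solvent with surfactant. After about 10 d in a greenhouse, injury rated visually versus untreated controls on a 0–100 scale (100 = complete control).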

[2] = tested on: blackgrass (Alopecurus myosuroides); experiment: Test A greenhouse herbicide test, postemergence; settings: for Blackgrass plant response rating: 0 to 100 scale, 0 is no effect, 100 is complete control
Method in brief: (§1)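 Pot-grown plants (loam soil/sand blend), 2–10 cm tall at the one- to two-leaf stage, received postemergence sprays of formulated test chemical. After about 10 d in the greenhouse, injury was rated visually against untreated controls on a 0 (no effect) to 100 (complete control) scale.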

[3] = tested on: galium (catchweed bedstraw, Galium aparine); experiment: Test A greenhouse herbicide test, postemergence
Method in brief: as §1

[4] = tested on: barnyardgrass (Echinochloa crus-galli); experiment: Test B flooded paddy test; settings: 250 g ai/ha, Flood; visual rating on scale of 0 to 100 where 0 is no effect and 100 is complete control; 13 to 15 d after treatment
Method in brief: (§2)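 Plants grown to the 2-leaf stage. At treatment, pots were flooded to 3 cm above the soil, compound was applied directly to the paddy water, and that depth was held throughout. After 13 to 15 d in the greenhouse, response was rated visually against controls on a 0 (no effect) to 100 (complete control) scale.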

[5] = tested on: ducksalad (Heteranthera limosa); experiment: Test B flooded paddy test; settings: 250 g ai/ha, Flood; visual rating on scale of 0 to 100 where 0 is no effect and 100 is complete control; 13 to 15 d after treatment
Method in brief: as §2

rice (Oryza sativa) = experiment: Test B flooded paddy test; settings: 250 g ai/ha, Flood; visual rating on scale of 0 to 100 where 0 is no effect and 100 is complete control; 13 to 15 d after treatment
Method in brief: as §2

[6] = tested on: sedge, umbrella (small-flower umbrella sedge, Cyperus difformis); experiment: Test B flooded paddy test; settings: 250 g ai/ha, Flood; visual rating on scale of 0 to 100 where 0 is no effect and 100 is complete control; 13 to 15 d after treatment
Method in brief: as §2

[7] = tested on: chickweed (common chickweed, Stellaria media); experiment: Test C greenhouse herbicide test, postemergence
Method in brief: (§3)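 Test chemicals were applied postemergence to greenhouse plants at the 1- to 4-leaf stage (2–18 cm tall) growing in peat/vermiculite medium. After 13–15 d, injury was rated visually against untreated controls on a 0–100 scale (0 = no effect, 100 = complete control).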

kochia (Kochia scoparia) = experiment: Test C greenhouse herbicide test, postemergence
Method in brief: as §3

[8] = tested on: oat, wild (wild oat, Avena fatua); experiment: Test C greenhouse herbicide test, postemergence
Method in brief: as §3

[9] = tested on: waterhemp_RES1 (ALS & Triazine resistant common waterhemp, Amaranthus rudis); experiment: Test E greenhouse herbicide test, postemergence
Method in brief: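 Postemergence spray of formulated test chemicals onto resistant waterhemp at 1- to 4-leaf stage (2–18 cm tall), grown in peat/vermiculite potting medium. Kept in greenhouse 14 to 21 d, then visually rated against untreated controls on a 0–100 scale (0 no effect, 100 complete control).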

[10] = Postemergence, 125 g ai/ha, 0 to 100 scale where 0 is no effect and 100 is complete control
[11] = Postemergence, 500 g ai/ha, 0 to 100 scale, 0 is no effect, 100 is complete control
[12] = Preemergence, 125 g ai/ha, 0 to 100 scale where 0 is no effect and 100 is complete control
[13] = Preemergence, 500 g ai/ha, 0 to 100 scale where 0 is no effect and 100 is complete control
[14] = 125 g ai/ha, 0 to 100 scale where 0 is no effect and 100 is complete control
[15] = 500 g ai/ha, visual rating after approx. 10 d, 0 to 100 scale (0 no effect, 100 complete control)
[16] = Postemergence, 31 g ai/ha, 0 to 100 scale (0 no effect, 100 complete control)
[17] = Postemergence, 125 g ai/ha, scale 0 to 100, 0 is no effect, 100 is complete control
[18] = Postemergence, 250 g ai/ha, scale 0 to 100, 0 no effect, 100 complete control, 13 to 15 d
[19] = postemergence, 62 g ai/ha, scale 0 to 100, 0 no effect, 100 complete control
[20] = 31 g ai/ha, visual, scale 0 no effect to 100 complete control
[21] = 125 g ai/ha, scale 0 to 100 (0 no effect, 100 complete control)
[22] = 125 g ai/ha, visual rating after approx. 10 d, 0 to 100 scale (0 no effect, 100 complete control)
[23] = 250 g ai/ha, scale 0 to 100 (0 no effect, 100 complete control)
[24] = Postemergence, 31 g ai/ha, scale 0 to 100 (0 no effect, 100 complete control)
[25] = Postemergence, 62 g ai/ha, 0 to 100 scale (0 no effect, 100 complete control)

Row | SMILES | Plant response rating, Barnyardgrass [1, 10] | Barnyardgrass plant response rating [1, 11] | Barnyardgrass plant response rating [1, 12] | Plant response rating, Barnyardgrass [1, 13] | Plant response rating, Blackgrass [2, 14] | Blackgrass plant response rating ([2]; 500 g ai/ha) | Plant response rating, Galium [3, 14] | Plant response rating, Galium [3, 15] | Plant response rating, Barnyardgrass [4] | Plant response rating, Ducksalad [5] | Plant response rating, Rice (rice (Oryza sativa)) | Plant response rating, Sedge, Umbrella [6] | Plant response rating, Chickweed [7, 17] | Plant response rating, Chickweed [7, 18] | Plant response rating, Kochia (kochia (Kochia scoparia); [17]) | Plant response rating, Kochia (kochia (Kochia scoparia); [18]) | Plant response rating, Oat, Wild [8, 17] | Plant response rating, Oat, Wild [8, 18] | Plant response rating, Waterhemp_RES1 [9, 20] | Plant response rating, Waterhemp_RES1 [9, 21] | further results
1 | CC(=O)Oc1c(C)nn(C)c(=O)c1-c1c(C)cc(C)c2ccccc12 [Compound 99] | 20 | 90 | 60 | 90 | 60 | 80 | 100 | 100 | 0 | 0 | 0 | 0 | 90 | 90 | 90 | 95 | 90 | 95 | 50 | 75 | Chickweed plant response rating [7, 16]: 90; Chickweed plant response rating [7, 19]: 90; Kochia plant response rating (kochia (Kochia scoparia); [19]): 85; Oat, Wild plant response rating [8, 19]: 70; Plant response rating, Waterhemp_RES1 ([9]; 16 g ai/ha, visual, scale 0 no effect to 100 complete control): 50
2 | Cn1nc(Br)c(O)c(-c2cccc3ccccc23)c1=O [Compound 20] | – | 100 | 30 | – | – | 40 | – | – | 0 | 50 | 0 | 50 | 100 | 100 | 90 | 100 | 25 | 40 | 60 | 80 | Plant response rating, Barnyardgrass ([1]; Postemergence, 125 g ai/ha, visual rating after approx. 10 d, 0 to 100 scale (0 no effect, 100 complete control)): 30; Plant response rating, Barnyardgrass ([1]; Preemergence, 500 g ai/ha, 0 to 100 scale, 0 no effect, 100 complete control): 90; Plant response rating, Blackgrass [2, 22]: 30; Plant response rating, Galium [3, 22]: 90; Galium plant response rating ([3]; 500 g ai/ha, 0 to 100 scale, 0 is no effect, 100 is complete control): 100; Chickweed plant response rating [7, 16]: 90; Chickweed plant response rating [7, 19]: 98; Kochia plant response rating (kochia (Kochia scoparia); [16]): 50; Kochia plant response rating (kochia (Kochia scoparia); [19]): 80; Oat, Wild plant response rating [8, 16]: 0; Oat, Wild plant response rating [8, 19]: 5; Plant response rating, Waterhemp_RES1 ([9]; 62 g ai/ha, scale 0 to 100 (0 no effect, 100 complete control)): 70; Plant response rating, Waterhemp_RES1 [9, 23]: 80
3 | Cc1nn(C)c(=O)c(-c2cccc3ccc(Br)cc23)c1O [Compound 126] | 30 | – | 40 | 80 | 60 | – | 100 | 100 | 0 | 30 | 0 | 0 | 95 | 100 | 95 | 95 | 90 | 85 | 75 | 90 | Plant response rating, Barnyardgrass ([1]; Postemergence, 500 g ai/ha, visual rating after approx. 10 d, 0 to 100 scale (0 no effect, 100 complete control)): 60; Plant response rating, Blackgrass [2, 15]: 70; Plant response rating, Chickweed [7, 24]: 90; Chickweed plant response rating [7, 25]: 90; Plant response rating, Kochia (kochia (Kochia scoparia); [24]): 90; Kochia plant response rating (kochia (Kochia scoparia); [25]): 90; Plant response rating, Oat, Wild [8, 24]: 60; Oat, Wild plant response rating [8, 25]: 80; Plant response rating, Waterhemp_RES1 [9, 23]: 100
